Measurements as given in ChEMBL document CHEMBL1201862, “PubChem BioAssay data set” (2004).
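All cell lines were grown in 96-well plates and treated with compound for 48 hours. GI50 = concentration required for 50% inhibition of growth.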 Activity calls are given as the source filed them. Cut-off read from the data, not from the text of the source: active = GI50 up to about 1.1 µM and inactive = higher.

Key:
Experiment in all cases: NCI anticancer screen, dose series, 48 h
[1] = system: HCT-116
[2] = system: SNB-75
[3] = system: A549
[4] = system: SK-MEL-28
[5] = system: SK-OV-3
[6] = system: OVCAR-8
[7] = system: SN12C
[8] = system: ACHN
[9] = system: SK-MEL-5
[10] = system: HT-29
[11] = system: NCI-H226
[12] = system: CAKI-1
[13] = system: SK-MEL-2
[14] = system: MCF7
[15] = system: KM12
[16] = system: A498
[17] = system: HOP-92
[18] = system: OVCAR-3
[19] = system: T47D
[20] = system: LOX IMVI

CC1(C)OC(=O)C(C)(C)OC1=O
GI50 [1]: > 100 µM (inactive)
GI50 [2]: > 100 µM (inactive)
GI50 [3]: > 100 µM (inactive)
GI50 [4]: > 100 µM (inactive)
GI50 [5]: > 100 µM (inactive)
GI50 [6]: > 100 µM (inactive)
GI50 [7]: > 100 µM (inactive)
GI50 [8]: > 100 µM (inactive)
GI50 [9]: > 100 µM (inactive)
GI50 [10]: > 100 µM (inactive)
GI50 [11]: > 100 µM (inactive)
GI50 [12]: > 100 µM (inactive)
GI50 [13]: > 100 µM (inactive)
GI50 [14]: > 100 µM (inactive)
GI50 [15]: > 100 µM (inactive)
GI50 [16]: > 100 µM (inactive)
GI50 [17]: > 100 µM (inactive)
GI50 [18]: > 100 µM (inactive)
GI50 [19]: > 100 µM (inactive)
GI50 [20]: > 100 µM (inactive)

CC(C)c1cc2c(cc1S(=O)(=O)O)[C@@]1(C)CCC[C@@](C)(C(=O)O)C1CC2 (stereo not given in full)
GI50 [1]: > 100 µM (inactive)
GI50 [2]: > 100 µM (inactive)
GI50 [3]: > 100 µM (inactive)
GI50 [4]: > 100 µM (inactive)
GI50 [5]: > 100 µM (inactive)
GI50 [6]: > 100 µM (inactive)
GI50 [7]: > 100 µM (inactive)
GI50 [8]: > 100 µM (inactive)
GI50 [9]: > 100 µM (inactive)
GI50 [10]: > 100 µM (inactive)
GI50 [11]: > 100 µM (inactive)
GI50 [12]: > 100 µM (inactive)
GI50 [13]: > 100 µM (inactive)
GI50 [14]: > 100 µM (inactive)
GI50 [15]: > 100 µM (inactive)
GI50 [16]: > 100 µM (inactive)
GI50 [17]: > 100 µM (inactive)
GI50 [18]: > 100 µM (inactive)
GI50 [19]: > 100 µM (inactive)
GI50 [20]: > 100 µM (inactive)

CC(CC=O)Nc1nn2c(=O)c3ccccc3nc2s1 (stereo not given)
GI50 [1]: > 100 µM (inactive)
GI50 [2]: > 100 µM (inactive)
GI50 [3]: > 100 µM (inactive)
GI50 [4]: > 100 µM (inactive)
GI50 [5]: > 100 µM (inactive)
GI50 [6]: > 100 µM (inactive)
GI50 [7]: > 100 µM (inactive)
GI50 [8]: > 100 µM (inactive)
GI50 [9]: > 100 µM (inactive)
GI50 [10]: > 100 µM (inactive)
GI50 [11]: > 100 µM (inactive)
GI50 [12]: > 100 µM (inactive)
GI50 [13]: > 100 µM (inactive)
GI50 [14]: > 100 µM (inactive)
GI50 [15]: > 100 µM (inactive)
GI50 [16]: > 100 µM (inactive)
GI50 [17]: > 100 µM (inactive)
GI50 [18]: > 100 µM (inactive)
GI50 [19]: > 100 µM (inactive)
GI50 [20]: > 100 µM (inactive)

Cl/C(=C\C=N\c1ccc(I)cc1)c1ccc2ccccc2c1
GI50 [1]: 16.1 µM (inactive)
GI50 [2]: 28.4 µM (inactive)
GI50 [3]: 33.3 µM (inactive)
GI50 [4]: 21.4 µM (inactive)
GI50 [5]: 22.5 µM (inactive)
GI50 [6]: 17.4 µM (inactive)
GI50 [7]: 17.9 µM (inactive)
GI50 [8]: 10.5 µM (inactive)
GI50 [9]: 18 µM (inactive)
GI50 [10]: 40.5 µM (inactive)
GI50 [11]: 20.8 µM (inactive)
GI50 [12]: 11.9 µM (inactive)
GI50 [13]: 18.9 µM (inactive)
GI50 [14]: 23.2 µM (inactive)
GI50 [15]: 13.1 µM (inactive)
GI50 [16]: 47.6 µM (inactive)
GI50 [17]: 41.6 µM (inactive)
GI50 [18]: 15 µM (inactive)
GI50 [19]: 10.4 µM (inactive)
GI50 [20]: 8.53 µM (inactive)

COc1ccc2c(C)cc(N/N=C/c3ccc(C)s3)nc2c1
GI50 [1]: 5.92 µM (inactive)
GI50 [2]: 20.9 µM (inactive)
GI50 [3]: 7.91 µM (inactive)
GI50 [4]: 24.7 µM (inactive)
GI50 [5]: 17 µM (inactive)
GI50 [6]: 15.2 µM (inactive)
GI50 [7]: 11.9 µM (inactive)
GI50 [8]: 18 µM (inactive)
GI50 [9]: 3.43 µM (inactive)
GI50 [10]: 3.21 µM (inactive)
GI50 [11]: 13 µM (inactive)
GI50 [12]: 13.5 µM (inactive)
GI50 [13]: 19.1 µM (inactive)
GI50 [14]: 6.24 µM (inactive)
GI50 [15]: 5.18 µM (inactive)
GI50 [16]: 19.4 µM (inactive)
GI50 [17]: 19.5 µM (inactive)
GI50 [18]: 2.94 µM (inactive)
GI50 [19]: 6.53 µM (inactive)
GI50 [20]: 3.46 µM (inactive)

CC(N)/C(N)=N/O (stereo not given)
GI50 [1]: > 100 µM (inactive)
GI50 [2]: > 100 µM (inactive)
GI50 [3]: > 100 µM (inactive)
GI50 [4]: > 100 µM (inactive)
GI50 [5]: > 100 µM (inactive)
GI50 [6]: > 100 µM (inactive)
GI50 [7]: > 100 µM (inactive)
GI50 [8]: > 100 µM (inactive)
GI50 [9]: > 100 µM (inactive)
GI50 [10]: > 100 µM (inactive)
GI50 [11]: > 100 µM (inactive)
GI50 [12]: > 100 µM (inactive)
GI50 [13]: > 100 µM (inactive)
GI50 [14]: > 100 µM (inactive)
GI50 [15]: > 100 µM (inactive)
GI50 [16]: > 100 µM (inactive)
GI50 [17]: > 100 µM (inactive)
GI50 [18]: > 100 µM (inactive)
GI50 [19]: > 100 µM (inactive)
GI50 [20]: > 100 µM (inactive)

Cc1cccc2sc(NC(=O)c3cc([N+](=O)[O-])ccc3Cl)nc12
GI50 [1]: 2.55 µM (inactive)
GI50 [2]: 1 µM (active)
GI50 [3]: 3.86 µM (inactive)
GI50 [4]: 5.22 µM (inactive)
GI50 [5]: 13.1 µM (inactive)
GI50 [6]: 2.36 µM (inactive)
GI50 [7]: 1.55 µM (inactive)
GI50 [8]: 5.41 µM (inactive)
GI50 [9]: 1.84 µM (inactive)
GI50 [10]: 1.85 µM (inactive)
GI50 [11]: 5.71 µM (inactive)
GI50 [12]: 3.85 µM (inactive)
GI50 [13]: 4.46 µM (inactive)
GI50 [14]: 1.68 µM (inactive)
GI50 [15]: 2.42 µM (inactive)
GI50 [16]: 17.3 µM (inactive)
GI50 [17]: 2.77 µM (inactive)
GI50 [18]: 4.06 µM (inactive)
GI50 [19]: 4.35 µM (inactive)
GI50 [20]: 2.01 µM (inactive)
